Experiments:
Assay type in all cases: cell-based, rat
[1] = system: IL-1β; assay: IL-1β secretion from LPS-stimulated microglial cells (ELISA); details: LPS 100 ng/mL, 24 h
Procedure: (§1) Cultures of primary rat microglial cells were prepared from cerebral cortices of 1-2 day-old neonatal Wistar rats as described. Microglial cells were seeded at 24-well plastic plates at 1×10^5/well in RPMI-1640 containing 2% FBS, 2 mM glutamine, 100 U/mL penicillin, 100 µg/mL streptomycin, 1 mM sodium pyruvate, and 50 μM β-mercaptoethanol. Cells were cultured for 36 h before treatments. The research was conducted in accordance with the NIH guide for the care and use of laboratory animals, and was approved by the Institutional Animal Care and Use Committee of The Volcani Center, Agricultural Research Organization (IL-135/07, approval date Apr. 11, 2007). All efforts were made to minimize animal suffering, and to reduce the number of animals used.
For IL-1β measurements, 3.5×10^4 cells/well were plated on a 24-well tissue culture plate. After 24 h of incubation in DMEM containing 10% FBS, cells were stimulated with LPS (100 ng/mL) and treated with different concentrations of achillolide A. Conditioned media were collected twenty four hours later, and were tested with a rat IL1β ELISA kit (Novus Biologicals; CO, USA), according to the manufacturer's instructions.
2. Plate microglial cells (3.5×10^4 cells/well) on a 24-well tissue culture plate, in DMEM containing 10% FBS, 2 mM glutamine, 100 U/ml penicillin and 100 micrograms/mL streptomycin;
Microglial cells were treated with different concentrations of TTF, followed by stimulation with LPS (100 ng/mL). After 24 h, conditioned media were collected and tested for cytokine levels by ELISA. Cell viability was determined using the crystal violet assay (FIG. 9C). Values represent the means±SEM (n=4 for each treatment).
Microglial cells were treated with 20 μg/mL of achillolide A, followed by stimulation with LPS (4.5 ng/mL). After 5 h the levels of the indicated transcripts were measured by quantitative real-time PCR and the relative quantity (RQ) of the different transcripts were determined. […] The results are expressed as percentages relative to LPS-stimulated cells. […]

[2] = system: glutamate; assay: Glutamate secretion from LPS-activated microglial cells; details: LPS 100 ng/mL, 20 h
Procedure: For glutamate measurements, 3.5×10^4 cells/well were plated on a 24-well tissue culture plate. After 24 h of incubation in DMEM containing 10% FBS, cells were stimulated with LPS (100 ng/mL) and treated with different concentrations of achillolide A. Conditioned media were collected twenty hours later, and were tested for glutamate levels using a colorimetric enzymatic assay kit (glutamate assay kit, BioVision, CA, USA) according to the manufacturer's instructions. 7. Measure the levels of glutamate using a colorimetric enzymatic assay kit (glutamate assay kit, BioVision, CA, USA) according to the manufacturer's instructions. Microglial cells were treated with the indicated concentrations of achillolide A, followed by stimulation with LPS (100 ng/mL). After 20 h, conditioned media were collected and tested for glutamate levels by a commercial kit. Values represent the means±SEM (n=4 for each treatment). ** p<0.01; *** p<0.001, compared to LPS-stimulated cells.

[3] = system: microglial cells; assay: Cellular antioxidant activity (ABAP peroxyl radicals) in microglial cells; details: ABAP 0.6 mM, dexamethasone at nanomolar concentrations
Procedure: Intracellular ROS production was detected using the non-fluorescent cell permeating compound, 2′7′-dichlorofluorescein diacetate (DCF-DA). DCF-DA is hydrolyzed by intracellular esterases and then oxidized by ROS to a fluorescent compound 2′-7′-DCF. Peroxyl radicals are generated by thermolysis of 2,2′-Azobis(amidinopropane) (ABAP) at physiological temperature. ABAP decomposes at approximately 1.36×10^−6s^−1 at 37° C., producing at most 1×10^12 radicals/mL/s. Microglial cells (130,000 cells/well) were plated in DMEM containing 2% FBS, 8.4 mM HEPES, 2 mM glutamine, 100 U/mL penicillin and 100 μg/mL streptomycin, onto 24 wells plates. In order to measure the ability of achillolide A to enter the cells and prevent the formation of DCF by ABAP-generated peroxyl radicals, cells were incubated for 1 h with achillolide A. Then cells were preloaded with DCF-DA for 30 min, washed twice with PBS, and ABAP (0.6 mM final concentration) was then added. The fluorescence, which indicates ROS levels, was measured in a plate reader with excitation at 485 nm and emission at 520 nm.
Cells were incubated for 1 h with different concentrations of achillolide A. Then, the cells were pre-loaded with DCF-DA for 30 min and washed. ABAP (0.6 mM) was added to the culture and ROS levels were measured at the indicated time points. […]

[4] = system: NO; assay: NO (nitrite) production by LPS-activated microglial cells (Griess); details: LPS 4.5 ng/mL, 20 h
Procedure: as §1
For NO measurements, 1×10^5 microglial cells/well were plated in a 24-well tissue culture plate. Cells were stimulated with LPS (4.5 ng/mL) and concomitantly treated with achillolide A or a reference drug. NO levels in the culture medium were estimated with Griess reagent.
3. Activate microglial cells with lipopolysaccharide (LPS, 4.5 nanograms/mL);
In FIG. 21 A, microglial cells were treated with different concentrations of achillolide A, dexamethasone or memantine (as reference drugs) and were concomitantly activated by LPS (4.5 ng/mL) for 20 h. Cell conditioned supernatants were collected, and the levels of NO were measured using Griess reaction. Cytotoxicity was measured using the LDH method (FIG. 21B). Values represent the mean±SEM (n=12 for each treatment). ** p<0.01; ***p<0.001 relative to cells that were treated to LPS only.

With C[C@@H]1C[C@H]2[C@@H]3CCC4=CC(=O)C=C[C@]4(C)[C@@]3(F)[C@@H](O)C[C@]2(C)[C@@]1(O)C(=O)CO [dexamethasone, reference compound] the “inhibition of IL-1β secretion” value [1] was 85%, the “inhibition of the LPS-induced levels of secreted glutamate” value [2] was 90% and the “inhibition of the ABAP-induced increase in ROS fluorescence” value [3] was 75%. For the same compound, the “inhibition of NO produced by the activated cells” value [4] was 90%.

From US11752125B2, “Anti-neuroinflammatory and protective compounds in Achillea fragrantissima” (THE STATE OF ISRAEL MINISTRY OF AGRICULTURE & RURAL …, priority 2013, dated 2023)
